This is an account of results in patent US11596639B2, “Substituted indole Mcl-1 inhibitors” (Vanderbilt University, priority 2016, dated 2023).

A value given as a limit tells only on which side of the number the result lay.

One assay addresses Mcl-1 (Homo sapiens (Human), UniProt Q07820). In words: TR-FRET binding assay, FITC-Bak peptide and MBP-tagged Mcl-1. As to conditions: read-out: Ki for Inhibition of Mcl-1 by TR-FRET assay. The method, then: Compounds are diluted in DMSO in a 16-point, semilog serial dilution scheme. […] The plate was mixed and incubated for 3 hours at room temperature. […] TR-FRET signal is plotted and IC50 and Ki values are calculated in the same manner as the fluorescence polarization anisotropy based competition assays.
For orientation: Time-resolved FRET reads energy transfer from a long-lived donor to a nearby acceptor.

Assay [1] concerns H929 human cancer cell lines. In words: Cellular viability / proliferation (Cell TiterGlo, 72 h). The format is cell-based. As to conditions: Homo sapiens, NCI-H929, 72 h, read-out: GI50 on cellular proliferation of H929 human cancer cell lines, H929 cells, 72 h, Cell TiterGlo, 10% FBS. A digest of the protocol: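 Top dose 50 μM, serially diluted 2-fold, applied one day after seeding (1,000 cells/well, 10% FBS), DMSO below 1%.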

Mcl-1, sequence (Q07820 172-327): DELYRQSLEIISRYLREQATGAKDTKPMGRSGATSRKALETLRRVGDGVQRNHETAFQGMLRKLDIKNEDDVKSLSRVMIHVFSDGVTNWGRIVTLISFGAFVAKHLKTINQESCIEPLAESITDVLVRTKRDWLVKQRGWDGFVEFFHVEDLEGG

As usually defined, the Ki is a measure of affinity in units of concentration, obtained from inhibition or displacement. As for `Cc1cc(OCCCc2c3n(c4c(-c5c(C)nn(C)c5C)c(Cl)ccc24)[C@H](C)CN(c2cn(Cc4ccccn4)c4ccc(C(=O)O)cc24)C3=O)cc(C)c1Cl` [Example 561, (R)-3-(7-chloro-10-(3-(4-chloro-3,5-dimethylphenoxy)propyl)-4-methyl-1-oxo-6-(1,3,5-trimethyl-1H-pyrazol-4-yl)-3,4-dihydropyrazino[1,2-a]indol-2(1H)-yl)-1-(pyridin-2-ylmethyl)-1H-indole-5-carboxylic acid], at Mcl-1, the Ki is less than 0.2 nM. In assay [1], the GI50 was 510 nM.
For `Cc1cc(OCCCc2c3n(c4c(-c5c(C)nn(C)c5C)c(Cl)ccc24)[C@H](C)CN(c2cccc4c(C(=O)O)c5n(c24)CCN(C)C5=O)C3=O)cc(C)c1Cl` [Example 562, (R)-7-chloro-10-(3-(4-chloro-3,5-dimethylphenoxy)propyl)-2′,4-dimethyl-1,1′-dioxo-6-(1,3,5-trimethyl-1H-pyrazol-4-yl)-1′,2′,3,3′,4,4′-hexahydro-1H-[2,6′-bipyrazino[1,2-a]indole]-10′-carboxylic acid] the same measures were 0.97 nM and 1200 nM.
For `Cc1cc(OCCCc2c3n(c4c(-c5c(C)nn(C)c5C)c(Cl)ccc24)[C@H](C)CN(c2cn(Cc4cccnc4)c4ccc(C(=O)O)cc24)C3=O)cc(C)c1Cl` [Example 563, (R)-3-(7-chloro-10-(3-(4-chloro-3,5-dimethylphenoxy)propyl)-4-methyl-1-oxo-6-(1,3,5-trimethyl-1H-pyrazol-4-yl)-3,4-dihydropyrazino[1,2-a]indol-2(1H)-yl)-1-(pyridin-3-ylmethyl)-1H-indole-5-carboxylic acid], in that order: less than 0.2 nM and 1500 nM.
For `Cc1cc(OCCCc2c3n(c4c(-c5c(C)nn(C)c5C)c(Cl)ccc24)[C@H](C)CN(c2cc(N(C)Cc4ccccn4)cc4c(C(=O)O)cn(C)c24)C3=O)cc(C)c1Cl` [Example 564, (R)-7-(7-chloro-10-(3-(4-chloro-3,5-dimethylphenoxy)propyl)-4-methyl-1-oxo-6-(1,3,5-trimethyl-1H-pyrazol-4-yl)-3,4-dihydropyrazino[1,2-a]indol-2(1H)-yl)-1-methyl-5-(methyl(pyridin-2-ylmethyl)amino)-1H-indole-3-carboxylic acid], in that order: 0.46 nM and 590 nM.
As for `COc1cc(N2C[C@@H](C)n3c(c(CCCOc4cc(C)c(Cl)c(C)c4)c4ccc(Cl)c(-c5c(C)ncnc5C)c43)C2=O)c2c(c1)cc(C(=O)O)n2Cc1cc(C)ccn1` [Example 565, (R)-7-(7-chloro-10-(3-(4-chloro-3,5-dimethylphenoxy)propyl)-6-(4,6-dimethylpyrimidin-5-yl)-4-methyl-1-oxo-3,4-dihydropyrazino[1,2-a]indol-2(1H)-yl)-5-methoxy-1-((4-methylpyridin-2-yl)methyl)-1H-indole-2-carboxylic acid], the Ki at Mcl-1 was less than 0.2 nM. Also, the GI50 in assay [1] is less than 200 nM.
For `Cc1cccc(Cn2c(C(=O)O)cc3cc(OCCN(C)C)cc(N4C[C@@H](C)n5c(c(CCCOc6cc(C)c(Cl)c(C)c6)c6ccc(Cl)c(-c7c(C)ncnc7C)c65)C4=O)c32)n1` [Example 566, (R)-7-(7-chloro-10-(3-(4-chloro-3,5-dimethylphenoxy)propyl)-6-(4,6-dimethylpyrimidin-5-yl)-4-methyl-1-oxo-3,4-dihydropyrazino[1,2-a]indol-2(1H)-yl)-5-(2-(dimethylamino)ethoxy)-1-((6-methylpyridin-2-yl)methyl)-1H-indole-2-carboxylic acid], in that order: less than 0.2 nM and 410 nM.
For `Cc1cc(OCCCc2c3n(c4c(-c5c(C)nn(C)c5C)c(Cl)ccc24)[C@H](C)CN(c2cn(CCN4CCCC4)c4ccc(-c5ncccn5)cc24)C3=O)cc(C)c1Cl` [Example 567, (R)-7-Chloro-10-(3-(4-chloro-3,5-dimethylphenoxy)propyl)-4-methyl-2-(5-(pyrimidin-2-yl)-1-(2-(pyrrolidin-1-yl)ethyl)-1H-indol-3-yl)-6-(1,3,5-trimethyl-1H-pyrazol-4-yl)-3,4-dihydropyrazino[1,2-a]indol-1(2H)-one] the same measures were 9.6 nM and 930 nM.
With `Cc1cc(OCCCc2c3n(c4c(-c5c(C)nn(C)c5C)c(Cl)ccc24)[C@H](C)CN(c2cn(CCN4CCN(C)CC4)c4ccc(-c5ncccn5)cc24)C3=O)cc(C)c1Cl` [Example 568, (R)-7-Chloro-10-(3-(4-chloro-3,5-dimethylphenoxy)propyl)-4-methyl-2-(1-(2-(4-methylpiperazin-1-yl)ethyl)-5-(pyrimidin-2-yl)-1H-indol-3-yl)-6-(1,3,5-trimethyl-1H-pyrazol-4-yl)-3,4-dihydropyrazino[1,2-a]indol-1(2H)-one], the Ki at Mcl-1 is 1.8 nM. For the same compound, the GI50 in assay [1] was 280 nM.
For `Cc1cc(OCCCc2c3n(c4c(-c5c(C)nn(C)c5C)c(Cl)ccc24)[C@H](C)CN(c2cn(CCN4CCN(C)CC4)c4ccc(C(=O)O)cc24)C3=O)cc(C)c1Cl` [Example 569, (R)-3-(7-chloro-10-(3-(4-chloro-3,5-dimethylphenoxy)propyl)-4-methyl-1-oxo-6-(1,3,5-trimethyl-1H-pyrazol-4-yl)-3,4-dihydropyrazino[1,2-a]indol-2(1H)-yl)-1-(2-(4-methylpiperazin-1-yl)ethyl)-1H-indole-5-carboxylic acid] the same measures were 0.49 nM and 470 nM.
On to `Cc1cc(OCCCc2c3n(c4c(-c5c(C)nn(C)c5C)c(Cl)ccc24)[C@H](C)CN(c2cccc4cc(C(=O)O)n(Cc5cnn(C)n5)c24)C3=O)cc(C)c1Cl` [Example 570, (R)-7-(7-chloro-10-(3-(4-chloro-3,5-dimethylphenoxy)propyl)-4-methyl-1-oxo-6-(1,3,5-trimethyl-1H-pyrazol-4-yl)-3,4-dihydropyrazino[1,2-a]indol-2(1H)-yl)-1-((2-methyl-2H-1,2,3-triazol-4-yl)methyl)-1H-indole-2-carboxylic acid], for which the Ki on Mcl-1 was less than 0.2 nM. In addition, the GI50 in assay [1] came out at 560 nM.
For `COCCOc1cc(N2C[C@@H](C)n3c(c(CCCOc4cc(C)c(Cl)c(C)c4)c4ccc(Cl)c(-c5c(C)ncnc5C)c43)C2=O)c2c(c1)cc(C(=O)O)n2Cc1cccc(C)n1` [Example 571, (R)-7-(7-chloro-10-(3-(4-chloro-3,5-dimethylphenoxy)propyl)-6-(4,6-dimethylpyrimidin-5-yl)-4-methyl-1-oxo-3,4-dihydropyrazino[1,2-a]indol-2(1H)-yl)-5-(2-methoxyethoxy)-1-((6-methylpyridin-2-yl)methyl)-1H-indole-2-carboxylic acid] the same measures were less than 0.2 nM and less than 200 nM.
Consider `COc1cc(N2C[C@@H](C)n3c(c(CCCOc4cc(C)c(Cl)c(C)c4)c4ccc(Cl)c(-c5c(C)ncnc5C)c43)C2=O)c2c(c1)cc(C(=O)O)n2Cc1cccc(C)n1` [Example 572, (R)-7-(7-chloro-10-(3-(4-chloro-3,5-dimethylphenoxy)propyl)-6-(4,6-dimethylpyrimidin-5-yl)-4-methyl-1-oxo-3,4-dihydropyrazino[1,2-a]indol-2(1H)-yl)-5-methoxy-1-((6-methylpyridin-2-yl)methyl)-1H-indole-2-carboxylic acid], for which the Ki at Mcl-1 is less than 0.2 nM. For the same compound, in assay [1], the GI50 is 300 nM.
For `COCCOc1cc(N2C[C@@H](C)n3c(c(CCCOc4cc(C)c(Cl)c(C)c4)c4ccc(Cl)c(-c5c(C)ncnc5C)c43)C2=O)c2c(c1)cc(C(=O)O)n2Cc1cc(C)ccn1` [Example 573, (R)-7-(7-chloro-10-(3-(4-chloro-3,5-dimethylphenoxy)propyl)-6-(4,6-dimethylpyrimidin-5-yl)-4-methyl-1-oxo-3,4-dihydropyrazino[1,2-a]indol-2(1H)-yl)-5-(2-methoxyethoxy)-1-((4-methylpyridin-2-yl)methyl)-1H-indole-2-carboxylic acid], in that order: less than 0.2 nM and less than 200 nM.
For `Cc1cc(OCCCc2c3n(c4c(-c5c(C)ncnc5C)c(Cl)ccc24)[C@H](C)CN(c2cn(C)c4ccc(-c5ncn(C)n5)cc24)C3=O)cc(C)c1Cl` [Example 574, (R)-7-Chloro-10-(3-(4-chloro-3,5-dimethylphenoxy)propyl)-6-(4,6-dimethylpyrimidin-5-yl)-4-methyl-2-(1-methyl-5-(1-methyl-1H-1,2,4-triazol-3-yl)-1H-indol-3-yl)-3,4-dihydropyrazino[1,2-a]indol-1(2H)-one] the same measures were 2.4 nM and 270 nM.
For `Cc1cc(OCCCc2c3n(c4c(-c5c(C)nn(C)c5C)c(Cl)ccc24)[C@H](C)CN(c2cn(C)c4ncc(C(=O)O)cc24)C3=O)cc(C)c1Cl` [Example 575, (R)-3-(7-chloro-10-(3-(4-chloro-3,5-dimethylphenoxy)propyl)-4-methyl-1-oxo-6-(1,3,5-trimethyl-1H-pyrazol-4-yl)-3,4-dihydropyrazino[1,2-a]indol-2(1H)-yl)-1-methyl-1H-pyrrolo[2,3-b]pyridine-5-carboxylic acid] the same measures were less than 0.2 nM and 740 nM.
`Cc1cc(N2C[C@@H](C)n3c(c(CCCOc4cc(C)c(Cl)c(C)c4)c4ccc(Cl)c(-c5c(C)ncnc5C)c43)C2=O)c2c(c1)cc(C(=O)O)n2Cc1cccc(C)n1` [Example 576, (R)-7-(7-chloro-10-(3-(4-chloro-3,5-dimethylphenoxy)propyl)-6-(4,6-dimethylpyrimidin-5-yl)-4-methyl-1-oxo-3,4-dihydropyrazino[1,2-a]indol-2(1H)-yl)-5-methyl-1-((6-methylpyridin-2-yl)methyl)-1H-indole-2-carboxylic acid]: the Ki at Mcl-1 is less than 0.2 nM. The GI50 in assay [1] worked out at 350 nM.
